What is called IC50 is the point on the concentration scale where inhibition reaches its midpoint. A low value points to greater potency.

In test [1] the test system is LPS triggered IL-10 secretion in monocyte-derived macrophages (MdM). The test is described as follows: MdM assay: LPS-triggered IL-10 (ELISA). The test is classed as cell-based, human. The conditions noted are these: LPS 200 ng/mL, supernatant after 2 h, maximal fold change vs LPS only. The method, boiled down:
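Human CD14+ monocytes differentiated 10 days with 100 ng/mL rhM-CSF into macrophages. Compound preincubated 1 h at 37 °C (0.2% DMSO), then LPS 200 ng/mL. IL-10 in supernatant after 2 h measured by sandwich ELISA.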
(In general: ELISA stands for enzyme-linked immunosorbent assay.)

The target of a further test is T1, SIK1 (Homo sapiens, UniProt P57059).
T1 construct: purchased Carna Biosciences 02-131
T1 sequence (P57059 whole entry): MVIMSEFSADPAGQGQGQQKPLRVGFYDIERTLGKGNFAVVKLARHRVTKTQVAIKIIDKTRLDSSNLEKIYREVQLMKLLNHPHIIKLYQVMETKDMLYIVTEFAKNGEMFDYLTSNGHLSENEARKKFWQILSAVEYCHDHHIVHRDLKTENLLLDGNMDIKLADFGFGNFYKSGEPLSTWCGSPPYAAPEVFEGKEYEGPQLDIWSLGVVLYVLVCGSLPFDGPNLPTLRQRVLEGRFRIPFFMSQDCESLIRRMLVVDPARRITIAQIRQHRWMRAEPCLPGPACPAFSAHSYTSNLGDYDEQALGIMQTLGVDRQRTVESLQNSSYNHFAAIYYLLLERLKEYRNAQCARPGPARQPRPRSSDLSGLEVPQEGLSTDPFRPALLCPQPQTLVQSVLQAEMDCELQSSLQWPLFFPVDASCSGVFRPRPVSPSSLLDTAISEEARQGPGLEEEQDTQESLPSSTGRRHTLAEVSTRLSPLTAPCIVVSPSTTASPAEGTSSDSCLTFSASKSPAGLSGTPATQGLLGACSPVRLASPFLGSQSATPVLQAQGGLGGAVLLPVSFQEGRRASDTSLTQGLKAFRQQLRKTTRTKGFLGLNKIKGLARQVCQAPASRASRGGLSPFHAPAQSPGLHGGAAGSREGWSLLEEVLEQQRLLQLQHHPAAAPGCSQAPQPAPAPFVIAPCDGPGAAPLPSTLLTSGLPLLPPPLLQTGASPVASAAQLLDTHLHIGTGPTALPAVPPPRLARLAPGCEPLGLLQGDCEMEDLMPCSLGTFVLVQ
The test can be described thus: ADP-Glo kinase assay, SIK1. Format: biochemical. The conditions noted are these: ADP-Glo SIK kinase assay. The method, boiled down:
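Wells with 1% DMSO or 10 μM staurosporine (final) define the control window. The kinase reaction with substrate and ATP runs 120 min at RT, followed by ADP-Glo detection: ATP depletion (40 min) and ADP-derived luminescence (30 min).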
In general terms: ADP-Glo turns the ADP formed in a reaction into a luminescent signal.

`COc1cc(-c2cnc3cc(OCC4(F)CN(C)C4)ccn23)cc2c1C(=O)N(CC(F)(F)F)CC2` [compound 252, 6-[7-[(3-fluoro-1-methyl-azetidin-3-yl)methoxy]imidazo[1,2-a]pyridin-3-yl]-8-methoxy-2-(2,2,2-trifluoroethyl)-3,4-dihydro isoquinolin-1-one]: the “IL-10 FCmax median” value in test [1] is recorded as “++ (>1.5-4.5)”. The compound further showed an IC50 against SIK1 of 0.1 to 0.5 µM.
Taken in the same sequence, the figures for `COc1cc(-c2cnc3cc(OCCCN4CCCC(O)C4)ccn23)cc(OC(F)F)c1C(=O)NC1CC1` (centres unmarked) [compound 328, N-cyclopropyl-2-(difluoromethoxy)-4-[7-[3-(3-hydroxy-1-piperidyl)propoxy]imidazo [1,2-a]pyridin-3-yl]-6-methoxy-benzamide] were “++ (>1.5-4.5)” and 0.01 to 0.1 µM.
Taken in the same sequence, the figures for `COc1cc(-c2cnc3cc(OCCN4CCOC[C@@H]4C)ccn23)cc2c1C(=O)N(CC(F)(F)F)CC2` [Cpd 257, 8-methoxy-6-[7-[2-[(3S)-3-methylmorpholin-4-yl]ethoxy]imidazo[1,2-a]pyridin-3-yl]-2-(2,2,2-trifluoroethyl)-3,4-dihydroisoquinolin-1-one] were “++ (>1.5-4.5)” and 0.1 to 0.5 µM.
The matching figures for `COc1cc(-c2cnc3cc(OCCN(C)C)ccn23)cc(OC(F)F)c1C(=O)NC1CC1` [Cpd 6, N-cyclopropyl-2-(difluoromethoxy)-4-[7-[2-(dimethylamino)ethoxy]imidazo[1,2-a]pyridin-3-yl]-6-methoxy-benzamide]: “++ (>1.5-4.5)” and 0.1 to 0.5 µM.
In the case of `COc1cc(-c2cnc3cc(OCc4ccnn4C)ccn23)cc(OC(F)F)c1C(=O)NC1CC1` [compound 44, N-cyclopropyl-2-(difluoromethoxy)-6-methoxy-4-[7-[(2-methylpyrazol-3-yl)methoxy]imidazo[1,2-a]pyridin-3-yl] benzamide], the “IL-10 FCmax median” value in test [1] is on record as “+ (≤1.5)”. The compound also gave an IC50 against SIK1 of 0.01 to 0.1 µM.
The matching figures for `COc1cc(-c2cnc3cc(OCC4(C)CN(C)C4)ccn23)cc(OC(F)F)c1C(=O)NC1CC1` [compound 220, N-cyclopropyl-2-(difluoromethoxy)-4-[7-[(1,3-dimethylazetidin-3-yl)methoxy]imidazo[1,2-a]pyridin-3-yl]-6-methoxy-benzamide]: “++ (>1.5-4.5)” and 0.01 to 0.1 µM.
The matching figures for `COc1cc(-c2cnc3cc(OC[C@@H]4COCCO4)ccn23)cc2c1C(=O)N(CC(F)(F)F)CC2` [compound 225, 6-[7-[[(2S)-1,4-dioxan-2-yl]methoxy]imidazo[1,2-a]pyridin-3-yl]-8-methoxy-2-(2,2,2-trifluoroethyl)-3,4-dihydroisoquinolin-1-one]: “++ (>1.5-4.5)” and 0.1 to 0.5 µM.
Taken in the same sequence, the figures for `COc1cc(-c2cnc3cc(OCC4CCO4)ccn23)cc2c1C(=O)N(CC(F)(F)F)CC2` (centres unmarked) [compound 125, 8-methoxy-6-[7-(oxetan-2-ylmethoxy)imidazo[1,2-a]pyridin-3-yl]-2-(2,2,2-trifluoroethyl)-3,4-dihydroisoquinolin-1-one] were “++ (>1.5-4.5)” and 0.1 to 0.5 µM.
As for `COc1cc(-c2cnc3cc(OC[C@H]4CN(C)CCO4)ccn23)cc2c1C(=O)N(CC(F)(F)F)CC2` [compound 190, 8-methoxy-6-[7-[[(2R)-4-methylmorpholin-2-yl]methoxy]imidazo[1,2-a]pyridin-3-yl]-2-(2,2,2-trifluoroethyl)-3,4-dihydro isoquinolin-1-one], the “IL-10 FCmax median” value in test [1] was “++ (>1.5-4.5)”. This compound displayed an IC50 at SIK1 of 0.1 to 0.5 µM.
As to `COc1cc(-c2cnc3cc(OCCN(C)C)ccn23)cc2c1C(=O)N(CC(F)(F)F)CC2` [Cpd 18, 6-[7-[2-(dimethylamino)ethoxy]imidazo[1,2-a]pyridin-3-yl]-8-methoxy-2-(2,2,2-trifluoroethyl)-3,4-dihydroisoquinolin-1-one], the “IL-10 FCmax median” value in test [1] was “++ (>1.5-4.5)”. Also, the IC50 at SIK1 is more than 0.5 µM.
The matching figures for `COc1cc(-c2cnc3cc(OCCN(C)C)ccn23)cc2c1C(=O)N(CC(F)F)CC2` [compound 54, 2-(2,2-difluoroethyl)-6-[7-[2-(dimethylamino)ethoxy]imidazo [1,2-a]pyridin-3-yl]-8-methoxy-3,4-dihydro isoquinolin-1-one]: “++ (>1.5-4.5)” and more than 0.5 µM.
Taken in the same sequence, the figures for `COc1cc(-c2cnc3cc(OCCN4CCOCC4)ccn23)cc2c1C(=O)N(CC(F)F)CC2` [compound 218, 2-(2,2-difluoroethyl)-8-methoxy-6-[7-(2-morpholinoethoxy)imidazo [1,2-a]pyridin-3-yl]-3,4-dihydroisoquinolin-1-one] were “++ (>1.5-4.5)” and 0.1 to 0.5 µM.
The matching figures for `COc1cc(-c2cnc3cc(OC[C@H]4COCCO4)ccn23)cc2c1C(=O)N(CC(F)(F)F)CC2` [Cpd 86, 6-[7-[[(2R)-1,4-dioxan-2-yl]methoxy]imidazo[1,2-a]pyridin-3-yl]-8-methoxy-2-(2,2,2-trifluoroethyl)-3,4-dihydroisoquinolin-1-one]: “++ (>1.5-4.5)” and 0.1 to 0.5 µM.

The record behind these values is patent US12264156B2, “Compounds and pharmaceutical compositions thereof for the treatment of diseases” (GALAPAGOS NV, priority 2018, dated 2025).
